Experiments:
[1] = target: T1, dihydropyrimidine dehydrogenase (DPD) (Homo sapiens, UniProt Q12882); settings: re-absorbed BVU, metabolite of oral sorivudine; cited from earlier work
T1 sequence (Q12882 4-1025): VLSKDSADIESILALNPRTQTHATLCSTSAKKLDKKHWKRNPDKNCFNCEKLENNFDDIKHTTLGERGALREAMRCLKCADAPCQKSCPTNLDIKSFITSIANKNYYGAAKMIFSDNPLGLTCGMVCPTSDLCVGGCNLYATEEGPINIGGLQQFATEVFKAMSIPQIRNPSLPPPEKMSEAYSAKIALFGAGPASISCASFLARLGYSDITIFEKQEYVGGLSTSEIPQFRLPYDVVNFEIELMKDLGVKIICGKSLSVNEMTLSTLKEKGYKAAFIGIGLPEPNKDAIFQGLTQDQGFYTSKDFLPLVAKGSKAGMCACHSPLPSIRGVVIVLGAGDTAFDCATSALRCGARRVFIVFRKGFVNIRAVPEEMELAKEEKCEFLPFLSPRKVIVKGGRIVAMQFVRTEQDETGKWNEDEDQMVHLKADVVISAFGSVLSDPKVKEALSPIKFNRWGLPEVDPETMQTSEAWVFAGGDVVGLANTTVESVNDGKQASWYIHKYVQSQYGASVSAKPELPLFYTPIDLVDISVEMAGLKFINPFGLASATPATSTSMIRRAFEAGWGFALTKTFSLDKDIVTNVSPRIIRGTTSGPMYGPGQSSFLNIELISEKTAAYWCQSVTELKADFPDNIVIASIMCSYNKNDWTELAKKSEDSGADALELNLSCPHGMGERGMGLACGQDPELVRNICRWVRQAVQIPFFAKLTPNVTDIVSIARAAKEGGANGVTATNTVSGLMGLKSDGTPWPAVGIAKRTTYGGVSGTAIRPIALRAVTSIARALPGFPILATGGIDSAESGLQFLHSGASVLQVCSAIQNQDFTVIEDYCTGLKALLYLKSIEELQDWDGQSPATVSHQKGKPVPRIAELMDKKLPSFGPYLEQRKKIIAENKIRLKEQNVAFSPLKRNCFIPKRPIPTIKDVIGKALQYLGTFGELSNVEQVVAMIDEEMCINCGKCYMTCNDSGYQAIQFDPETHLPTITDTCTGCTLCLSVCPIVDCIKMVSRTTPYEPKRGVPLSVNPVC

[2] = Study of interaction with 5-FU in rats; format: in vivo, Female Wister rats; settings: for interaction with 5-FU: Groups 5 and 6, preparations for topical use combined with 5-FU; for Body weight (pre.) / Feed intake (pre.): before test
Source text: Interactions with 5-FU, a fluorouracil-based anticancer drug, were studies using sorivudine (BVAU) 3% cream and CVAU 3% cream. Female Wister rats were raised for one week, and hair from the blade bone to the waist was shaved under anesthesia. The preparations for topical use were applied two times a day for one week. The expression “p.o.” appearing in the table means oral administration.
Erythrocyte count and leukocyte count are values measured seven days after the start of administration.

HSV-1 [3] = settings: against HSV-1; cited from earlier work
EBV = settings: against EBV; cited from earlier work
VZV = settings: against VZV; cited from earlier work
HSV-1 [4] = settings: application to the skin, mice; cited from earlier work
[5] = cited from earlier work
[6] = oral agent, administered at the same time; cited from earlier work
[7] = BVAU 30 mg/kg p.o. + 5-FU 60 mg/kg p.o.
[8] = BVAU 30 mg/kg p.o. + 5-FU 60 mg/kg p.o., seven days after start
[9] = single agent p.o. (BVAU 30 mg/kg; 5-FU 60 mg/kg)
[10] = single agent p.o. (BVAU 30 mg/kg; 5-FU 60 mg/kg), seven days after start of administration

## O=c1[nH]cc(/C=C/Br)c(=O)[nH]1 [BVU, bromovinyluracil]
[1]
  inhibition of DPD: inhibits

## O=c1[nH]c(=O)n([C@@H]2O[C@H](CO)[C@@H](O)[C@@H]2O)cc1/C=C/Cl [CVAU, 1-β-D-arabinofuranosyl-5-[(E)-2-chrolovinyl]uracil]
[2]
  interaction with 5-FU: no interaction observed

## O=c1[nH]c(=O)n([C@@H]2O[C@H](CO)[C@@H](O)[C@@H]2O)cc1/C=C/Br [sorivudine, 1-β-D-arabinofuranosyl-5-[(E)-2-bromovinyl]uracil]
[2]; [7]
  Body weight (pre.): 125
  Feed intake (pre.): 16
[2]; [8]
  Body weight (7 d): 88
  Erythrocyte count: 892 10^4/mm^3
  Feed intake (7 d): 3
  leukocyte count: 5.8 10^2/mm^3
[2]; Group 4, orally administered with 5-FU (positive control)
  side effect due to interaction with 5-FU: significant weight loss and myelo-suppression
[2]
  interaction with 5-FU: no interaction observed
[2]; [9]
  Body weight (pre.): 124
  Feed intake (pre.): 15
[2]; [10]
  Body weight (7 d): 143
  Erythrocyte count: 653 10^4/mm^3
  Feed intake (7 d): 16
  leukocyte count: 45.6 10^2/mm^3
HSV-1 [3]
  antiviral activity: extremely potent antiviral activity
EBV
  antiviral activity: extremely potent antiviral activity
VZV
  antiviral activity: extremely potent antiviral activity
HSV-1 [4]
  skin symptoms caused by inoculation with HSV-1: suppresses the skin symptoms
[5]
  solubility: slightly soluble
[6]
  adverse effect due to drug interaction with fluorouracil-based anticancer drugs: died because of the adverse effect due to drug interaction

— patent US20060009401A1, “Method for treatment and prevention of herpes zoster by topical application” (aRigen, Inc., priority 2004, published 2006)
